{"source": "patent US7354611B1", "about": "“Fecundity-promoting supplement for the insidious flower bug reared on artificial diet” (The United States of America as represented by the …, priority 2003, dated 2008)", "test_system": "Orius insidiosus", "test": "Orius insidiosus fecundity (oviposition) bioassay: adults fed artificial diet with or without supplement, cumulative eggs laid/female counted on green bean", "assay_type": "in vivo", "settings": "Test 2", "procedure": "Newly emerged adults of Orius insidiosus (<24 hour eclosion) were obtained from a commercial producer of beneficial insects (Entomos, Gainesville, Fla.). The insects were placed on the experimental diets on the third day after eclosion. Each diet treatment consisted of six females and four males in a 100-ml plant tissue culture jar (Sigma, St. Louis, Mo.) with four jars per treatment. Each jar contained one paraffin-encapsulated water dome (50 μl), two artificial diet domes (50 μl), one 7-cm section of green bean pod for oviposition, and three crumpled strips of wax paper (5 mm×80 mm) as substrates for the insects to crawl on. Artificial diet jars contained only artificial diet. Experimental diet jars contained artificial diet plus a supplement. Plodia egg (standard) jars each contained approximately 75 Ploida interpunctella eggs (approximately 3 mg) in place of diet. Although eggs from Euphestia kuehniella are generally used by commercial producers, eggs from P. interpunctella were used because O. insidiosus feeds readily on their eggs. Green beans were removed every other day and examined under a microscope to count eggs and then replaced with a fresh green bean section and mortality was also recorded within each jar. Plodia eggs and domes of water and diet were replaced on the same days that the green beans were removed for counting eggs. The insects were held in a growth chamber at about 25.50±1° C., with approximately 75±5% relative humidity, and a photoperiod of 15:9 (light:dark) hours. The experiments were carried out until the females in all treatments ceased oviposition, approximately 28 days. Diets were prepared under aseptic conditions in a clean room and encapsulated in Parafilm using a diet encapsulation apparatus as described in Ferkovich et al. (BioControl, Volume 45, 401-413, 2000).\nThe artificial diet was developed for rearing Orius sauteri (Weiru and Ren, 1989, supra), and consisted of approximately 4.0 grams brewers yeast, 0.4 grams sucrose, 2.1 grams soy protein acid hydrolysate, 0.046 grams of 99% palmitic acid (all from Sigma, St. Louis, Mo.), 0.5 grams chicken egg yolk, and 1.0 gram honey in 12 ml distilled water. Palmitic acid was mixed with the egg yolk component before adding it to the diet.\nTwo tests were conducted. In the first test, artificial diet was compared with the experimental diets which were composed of artificial diet supplemented with homogenized Plodia eggs, and protein and lipid extracts from Plodia eggs as described above. Each experimental diet was compared against the control artificial diet in an independent experiment on different dates. In the second test, any of the statistically significant experimental diets from the first test were then simultaneously compared with the experimental diets containing non-insect supplements.\nEach treatment in both tests was replicated four times with 6 females and 4 males/replication. The cumulative number of eggs laid/female on artificial diet and on experimental diet were calculated relative to the percent eggs laid/female on Plodia eggs (standard); thus, mean ±S.E.=[#eggs laid per female on either artificial diet or experimental diet divided by # eggs laid per female on Plodia eggs]×100, n=4. The egg counts were adjusted for mortality. The egg counts per female were calculated for each replication. Data was analyzed by ANOVA using StatMost Software (Dataxiom Software Inc.). […]", "key": {"[1]": {"settings": "Bovine Serum Albumin 83.3 mg/ml diet"}, "[2]": {"settings": "Bovine Serum Albumin 166.7 mg/ml diet"}}}
{"substance": "Bovine Serum Albumin: Bovine Serum albumin, Fraction V powder, Sigma", "values": [{"measurement": "% of Plodia egg Standard ± SE", "setting": "[1]", "value": "51.3 ± 4.1", "unit": "%"}, {"measurement": "Mean no. eggs/female ± SE", "setting": "[1]", "value": "19.7 ± 1.6", "unit": "eggs/female"}, {"measurement": "% of Plodia egg Standard ± SE", "setting": "[2]", "value": "64.9 ± 4.2", "unit": "%"}, {"measurement": "Mean no. eggs/female ± SE", "setting": "[2]", "value": "24.9 ± 1.6", "unit": "eggs/female"}, {"measurement": "effect on cumulative mean number of egg oviposited/female", "setting": "versus artificial diet (Table 2)", "value": "significantly increased"}]}
